Key:
[1] = biological target: T1, Tuberculosinyl adenosine transferase (Mycobacterium tuberculosis (strain CDC 1551 / Oshkosh), UniProt P9WJ60); experiment: Rv3378c Inhibition Assay
T1 sequence (P9WJ60 whole entry): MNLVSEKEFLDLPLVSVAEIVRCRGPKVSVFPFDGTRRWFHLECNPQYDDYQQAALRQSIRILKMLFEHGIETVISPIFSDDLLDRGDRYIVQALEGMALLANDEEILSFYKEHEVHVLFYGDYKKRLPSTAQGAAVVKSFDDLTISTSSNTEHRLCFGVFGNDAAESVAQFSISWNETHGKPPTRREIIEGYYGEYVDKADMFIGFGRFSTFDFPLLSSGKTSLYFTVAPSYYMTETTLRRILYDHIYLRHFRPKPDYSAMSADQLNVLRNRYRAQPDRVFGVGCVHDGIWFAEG
Procedure: For inhibition assay of Rv3378c, using tuberculosinyl diphosphate and adenosine as substrates, a mixture of 100 µM TPP, 100 µM adenosine,75 µg/mL Rv3378c, and inhibitors in the assay buffer (25 mM Tris-HCl, 1 mM MgCl2, 0.01% Triton-X-100) was incubated for 2 h at 37 °C.

[2] = biological target: T2, Decaprenyl diphosphate synthase (Mycobacterium tuberculosis (strain CDC 1551 / Oshkosh), UniProt P9WFF6); experiment: DPPS Inhibition (trans FPP based) Assay; details: pH 7.5
T2 sequence (P9WFF6 whole entry): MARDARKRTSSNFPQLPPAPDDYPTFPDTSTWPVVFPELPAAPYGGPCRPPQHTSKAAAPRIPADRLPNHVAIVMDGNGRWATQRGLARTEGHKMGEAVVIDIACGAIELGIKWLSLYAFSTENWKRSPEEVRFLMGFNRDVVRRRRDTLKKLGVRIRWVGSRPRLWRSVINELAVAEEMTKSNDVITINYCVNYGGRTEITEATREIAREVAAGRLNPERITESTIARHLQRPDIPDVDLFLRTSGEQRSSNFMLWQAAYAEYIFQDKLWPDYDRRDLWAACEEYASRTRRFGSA
From the text: We screened an in-house library of 53 compounds using trans-FPP as substrate.

[3] = biological target: T2, Decaprenyl diphosphate synthase; experiment: DPPS Inhibition (cis FPP based) Assay; details: pH 7.5
From the text: We screened an in-house library of 19 compounds using cis-FPP as substrate.

[4] = biological target: T2, Decaprenyl diphosphate synthase; experiment: DPPS Inhibition (GPP based) Assay; details: pH 7.5
From the text: We screened an in-house library of 43 compounds using GPP as substrate.

| Structure (SMILES) | IC50 [2] [µM] | IC50 [3] [µM] | also measured |
| --- | --- | --- | --- |
| O=C(Nc1cccc(C2=NCCN2)c1)c1ccc(-c2ccc(C(=O)Nc3cccc(C4=NCCN4)c3)cc2)cc1 [50460, 14] |  |  | IC50 [1]: 96 µM |
| O=P(O)(O)C(O)(c1cccc(-c2ccccc2)c1)P(=O)(O)O [(biphenyl-3-yl-hydroxy-phosphono-methyl)-phosphonic acid] | 40 |  |  |
| O=P(O)(O)C(Nc1ccc(-c2ccccc2)cc1)P(=O)(O)O [(biphenyl-4-ylamino)methylenediphosphonic acid] | 4.6 |  |  |
| O=P(O)(O)C(O)(Cc1cccc(-c2ccccc2)c1)P(=O)(O)O [BPH-294] | 7.5 |  |  |
| O=P(O)(O)C(O)(Cc1cccc(-c2cc(F)cc(F)c2)c1)P(=O)(O)O [BPH-309] | 1.7 |  |  |
| O=P(O)([CH2][Na])C(O)(Cc1ccc(-c2ccccc2)cc1)P(=O)(O)[CH2][Na] (centres undefined) [BPH-310] | 8.8 |  |  |
| O=P(O)(O)C(O)(CCc1cccc(-c2ccccc2-c2ccccc2)c1)P(=O)(O)O [BPH-621] | 30 |  |  |
| O=P(O)(O)C(O)(CCc1cccc(-c2cccc(-c3ccccc3)c2)c1)P(=O)(O)O [BPH-622] | 55 |  |  |
| O=P(O)(O)C(O)(Cc1ccc(-c2ccccc2-c2ccccc2)cc1)P(=O)(O)O [BPH-624] | 5.4 |  |  |
| O=P(O)(O)C(O)(Cc1ccc(-c2cccc(-c3ccccc3)c2)cc1)P(=O)(O)O [BPH-625] | 291 |  |  |
| O=P(O)(O)C(O)(Cc1ccc(-c2ccc(-c3ccccc3)cc2)cc1)P(=O)(O)O [BPH-626] | 51 |  |  |
| O=P(O)(O)C(C[n+]1ccc(-c2ccc(-c3ccccc3)cc2)cc1)P(=O)(O)O [BPH-632] | 498 |  |  |
| O=P(O)(O)C(O)(c1cccc(-c2cccc(-c3ccccc3)c2)c1)P(=O)(O)O [BPH-640] |  | 0.61 | IC50 [4]: 0.41 µM |
| O=P(O)(O)C(C[n+]1ccc(-c2cccc3c2oc2ccccc23)cc1)P(=O)(O)O [BPH-642] | 114 |  |  |
| O=P(O)(O)C(O)(CCc1cccc(-c2cccc3c2oc2ccccc23)c1)P(=O)(O)O [BPH-646] | 363 |  |  |
| O=P(O)(O)[C@@H](CCCc1cccc(Oc2ccccc2)c1)S(=O)(=O)O [BPH-652] | 113 |  |  |
| O=P(O)(O)C(O)(CCc1ccc(-c2ccccc2)cc1)P(=O)(O)O [BPH-665] | 13 |  |  |
| CCCCCCCCCCCCOc1ccc[n+](CC(P(=O)(O)O)P(=O)(O)O)c1 [BPH-716] | 77 |  |  |
| CCCCCCCCc1cc[n+](CC(P(=O)(O)O)P(=O)(O)O)cc1 [BPH-717] | 113 |  |  |
| O=P(O)(O)C(O)(Cc1ccc(-c2cccc(NS(=O)(=O)c3ccc4ccccc4c3)c2)cc1)P(=O)(O)O [BPH-780] | 3.8 |  |  |
| O=P(O)(O)C(O)(Cc1ccc(-c2cccc(NS(=O)(=O)c3ccc(-c4ccccc4)cc3)c2)cc1)P(=O)(O)O [BPH-781] | 66 |  |  |
| O=P(O)(O)C(O)(Cc1cccc(-c2cccc(NS(=O)(=O)c3ccc(-c4ccccc4)cc3)c2)c1)P(=O)(O)O [BPH-782] | 23 |  |  |
| O=P(O)(O)C(O)(Cc1cccc(-c2cccc(NS(=O)(=O)c3cccc(S(=O)(=O)Nc4cccc(-c5cccc(CC(O)(P(=O)(O)O)P(=O)(O)O)c5)c4)c3)c2)c1)P(=O)(O)O [BPH-789] | 5.4 |  | IC50 [4]: 0.36 µM |
| O=C(c1ccccc1)c1ccc(OCCCCCC[n+]2ccccc2)cc1 [BPH-921] | 880 |  |  |
| C=CCN(C)CCCCCCCCCCCCCCCC(=O)OC [BPH-922] | 620 |  |  |

| Structure (SMILES) | IC50 [2] [µM] | IC50 [3] [µM] | also measured |
| --- | --- | --- | --- |
| CCCCCCCCCCCCSc1ccccc1C(=O)O [BPH-940] | 127 |  |  |
| CCCCCCCCCCOc1cccc(CSc2ccccc2C(=O)O)c1 [BPH-1102] |  | 19 |  |
| O=C(O)c1ccccc1SCc1cccc(Oc2ccccc2)c1 [BPH-1125] |  | 30 | IC50 [4]: 1.2 µM |
| CCCCCCCCOc1cccc(CO/C=C/C=C(\C=C\C(=O)O)S(=O)(=O)N(C)C)c1 [BPH-1152] |  | 83 |  |
| CCCCCCCCOc1cccc(COc2ccc(S(=O)(=O)N3CCOCC3)cc2C(=O)O)c1 [BPH-1158] |  | 83 | IC50 [4]: 1.4 µM |
| CCCCCCCCCCOc1cccc(COc2ccccc2P(=O)(O)O)c1 [BPH-1159] |  | 55 |  |
| CCCCCCCCOc1cccc(C(=O)Nc2ccc([N+](=O)[O-])cc2C(=O)O)c1 [BPH-1247] |  | 49 | IC50 [4]: 0.119 µM |
| CCCCCCCCOc1cccc(C(=O)Nc2ccc(S(N)(=O)=O)cc2C(=O)O)c1 [BPH-1255] |  | 65 |  |
| CCCCCCCCOc1cccc(C(=O)Nc2ccc(Br)cc2C(=O)O)c1 [BPH-1264] |  | 11 | IC50 [4]: 0.068 µM |
| CCCCCCCCOc1cccc(C(=O)Nc2cc(OC)c(OC)cc2C(=O)O)c1 [BPH-1294] |  | 62 | IC50 [4]: 0.205 µM |
| CCCCCCCCOc1cc(O)cc(COc2ccc(Br)cc2C(=O)O)c1 [BPH-1311] |  | 56 | IC50 [4]: 2.9 µM |
| CCCCCCCCCCCCCCCn1cc[n+](CC(O)(P(=O)(O)O)P(=O)(O)O)c1 [BPH-1325] |  | 36 |  |
| Cc1ccc(S(=O)(=O)N2CCN(c3ccc(C(=O)/C=C(\O)C(=O)O)cc3)CC2)cc1 [BPH-1380] |  | 20 |  |
| O=C(O)/C(O)=C/C(=O)c1ccc(N2CCN(C(=O)c3cccc(-c4ccccc4)c3)CC2)cc1 [BPH-1381] |  | 15 |  |
| CCCCCCCCOc1ccc(C(=O)CSCC(=O)O)cc1 [BPH-1391] |  | 82 |  |
| C(=C\c1cc2ccc(C3=NCCN3)cc2[nH]1)/c1cc2ccc(C3=NCCN3)cc2[nH]1 [BPH-1417] |  | 20 | IC50 [1]: 0.66 µM; IC50 [4]: 0.49 µM |
| CCCCCCCCOc1cccc(C(=O)Nc2cccc(C(=O)O)c2C(O)O)c1 [BPH-1461] |  | 55 | IC50 [4]: 0.164 µM |
| C=CCC(/C=C/C(=O)Nc1ccc(F)cc1C(=O)O)OCCCCCCCC (centres undefined) [BPH-1463] |  | 90 | IC50 [4]: 0.031 µM |
| CCCCCCCCOc1ccc(F)c(C(=O)Nc2ccc(F)cc2C(=O)O)c1 [BPH-1485] |  | 20 | IC50 [4]: 0.308 µM |
| O=P(O)(O)C(O)(Cc1cccc(-c2cccc3c2oc2ccccc23)c1)P(=O)(O)O [[1-hydroxy-2-(3-{8-oxatricyclo[7.4.0.0^{2,7}]trideca-1(13),2,4,6,9,11-hexaen-6-yl}phenyl)-1-phosphonoethyl]phosphonic acid] | 19 |  | IC50 [1]: 0.21 µM |
| O=P(O)(O)C(O)(Cc1cccc(-c2ccc(F)cc2F)c1)P(=O)(O)O [[2-(2',4'-Difluoro-biphenyl-3-yl)-1-hydroxy-1-phosphono-ethyl]-phosphonic acid] | 4.3 |  |  |
| O=P(O)(O)C(O)(Cc1ccc(-c2ccc(Cl)cc2)cc1)P(=O)(O)O [[2-(4'-Chloro-biphenyl-4-yl)-1-hydroxy-1-phosphono-ethyl]-phosphonic acid] | 1.5 |  |  |
| O=P(O)(O)C(Nc1cccc(-c2ccccc2)c1)P(=O)(O)O [[(Biphenyl-3-ylamino)-phosphono-methyl]-phosphonic acid] | 6.3 |  |  |
| O=P(O)(O)C(O)(Cc1cccc(-c2cccc(-c3ccccc3)c2)c1)P(=O)(O)O [{1-hydroxy-2-[3-(3-phenylphenyl)phenyl]-1-phosphonoethyl}phosphonic acid] | 18 |  |  |
| O=P(O)(O)C(O)(Cc1cccc(-c2ccc(-c3ccccc3)cc2)c1)P(=O)(O)O [{1-hydroxy-2-[3-(4-phenylphenyl)phenyl]-1-phosphonoethyl}phosphonic acid] | 31 |  |  |
